These are literature values, as cited in patent US9192588B2, “Method for producing a zeaxanthin-enriched chicken egg” (JX NIPPON OIL & ENERGY CORPORATION, priority 2011, dated 2015).

Like-named read-outs stand apart in the source and are kept apart here.

For this data set the following is noted: human.
[1] abbreviates: twice the initial dose for further 6 months.

With `CC1=C(/C=C/C(C)=C/C=C/C(C)=C/C=C/C=C(C)/C=C/C=C(C)/C=C/C2=C(C)C[C@@H](O)CC2(C)C)C(C)(C)C[C@H](O)C1` [chemically synthesized zeaxanthin, zeaxanthin], where the note is “12.6 mg every day for 6 months”, the “blood zeaxanthin concentration after intake” value is 0.85 µM and the “proportion of the increase to the intake” value was 0.06 μM/(mg/Day). The “initial blood zeaxanthin concentration” value (before intake) was 0.04 µM. Under setting [1], the “blood zeaxanthin concentration after intake” value is 1.09 µM and the “proportion of the increase to the intake” value is recorded as 0.01 μM/(mg/Day).
